From patent publication US20220267390A1, “MPS MODIFIED PEPTIDES AND USE THEREOF” (The Regents of the University of California, priority 2019, published 2022) come the findings set out here.

In one experiment the test system is PIP3. As to the kind of experiment: PI(3,4,5)P3 quantitation (PIP3 Mass ELISA) in IPF fibroblasts. The experiment is classed as cell-based, human. The note with it: MPS-treated IPF fibroblasts vs PBS. An excerpt: (§1) FIGS. 10A-10C: (FIG. 10A) The PIP2-binding motif (SEQ ID NO: 12) on the ? hosphorylation ? ite ? omain (PSD) of MARCKS. FIG. 10A discloses the MH domain as SEQ ID NO: 86). (FIG. 10B) Biolayer interferometry analysis of the binding of the MPS peptide to biotin-labeled PIP2. (FIG. 10C) PIP3 levels in IPF fibroblast cells with PBS or MPS treatment. * p<0.05 versus PBS (n=3).
Cells were harvested and precipitated by trichloroacetic acid. PIP3 lipids were extracted twice from the trichloroacetic acid precipitated fraction by methanol: chloroform (2:1). After acidification, organic-phase lipids were used for PIP3 quantitation, based on the protocol for the PIP3 Mass ELISA kit (Echelon Biosciences, Salt Lake, Utah). Briefly, the lipid extract from cultured cells was mixed with the PIP3-specific detector protein, which was then incubated in a PIP3-coated microplate for competitive binding. After several washes, the microplate was then incubated with a HRP-linked secondary detector and tetramethylbenzidine substrate for color development. To stop further color development, 2M H2SO4 solution was then added. Microplates were read at an absorbance wavelength of 450 nm. A series of different dilutions of PIP3 standards were used for establishing a standard curve for each reaction. Cellular PIP3 amounts could be estimated by comparing the absorbance in the wells with the values in the standard curve. […]

The subject of experiment [1] is oncospheres derived from H292 cells. As to the kind of experiment: Sphere-forming assay, smoke-enriched oncospheres derived from H292 cells. The experiment is classed as cell-based. From the text: FIG. 18A-18C: (FIG. 18A) Sphere-forming assays for evaluating the inhibitory effect of the MPS peptide on smoke-mediated stemness. (FIG. 18B) Quantification of the number and size of oncospheres. (FIG. 18C) RT-qPCR analyses of mRNA expression in the above oncospheres.
Targeting the MARCKS PSD is associated with inhibition of stem-like cell properties. In light of the importance of the PSD in the functionality of MARCKS protein, Applicant designed a 25-mer MPS peptide to mimic the MARCKS phosphorylation site domain (PSD). […] Applicant's initial studies have shown that elevation of phospho-MARCKS in lung cancer spheres acted in parallel with increased stemness markers, such as CD133, Oct3/4, SOX2 and Nanog (data not included). The oncospheres were derived from high MARCKS-expressing lung cancer cell lines (H1975 and CL1-5) and primary lung cancer cells (LG704 and LC3: pleural effusion cells isolated from patients with advanced stage) in non-adherent serum-free culture conditions as described previously^30-32. Flow cytometry confirmed that ˜80% of LG704 oncosphere cells are CD133-positive, a major lung CSCs marker. […] The sphere-forming ability was assessed by counting the number and size of tumor spheres (oncospheres) under a microscope. […]

A short description of experiment [2]: Kinetic assay: biolayer interferometry binding to biotin-labeled PIP2. The note with it: 24° C., read-out: dissociation constant.
Excerpt: as §1
Real-time binding of the peptide mimicking the phosphorylation site domain of MARCKS (MPS peptide, amino acids 151 to 175 from the wild-type MARCKS protein) to biotin-labeled PIP2 was evaluated using biolayer interferometry (BLI) on an Octet RED96 system (ForteBio) following the manufacturer's instructions. Briefly, the ligand, PIP2 labeled with biotin at the sn-1 position (1000 nM in ddH2O), was immobilized on Super Streptavidin (SSA) biosensors for 10 minutes. A binding assay was performed with the MPS analyte at various concentrations from 0 to 1000 nM in ddH2O. Association and dissociation were monitored for 5 minutes. Assays were performed at 24° C. Data were analyzed using Octet Data Analysis Software 7.0 (ForteBio).
In general terms: In BLI a coated tip is dipped into the sample, and binding shifts an interference pattern.

Where no end group is shown, it is not given here.

Consider KKKKKRFSFKKSFKLSGFSFKKNKK [MPS peptide], for which the “PIP3 pools in whole cell lysates” value in the experiment on PIP3 is on record as “decrease”. The “number and size of oncospheres” value in experiment [1] is recorded as “inhibitory effects”. Further, in experiment [1] (RT-qPCR), the “expression of stemness genes” value is on record as “inhibitory effects”. Also, the Kd in experiment [2] was 17.6 nM.
